From ChEMBL document CHEMBL2331247, “Anti-inflammatory norditerpenoids from the soft coral Sinularia maxima” (Bioorg Med Chem Lett, 2013)

Experiments:
Type in all cases: functional
[1] = Antiinflammatory activity against in C57BL/6 mouse BMDC assessed as inhibition of LPS-stimulated IL12 production compound pre-incubated for 1 hr before LPS challenge by ELISA
[2] = Antiinflammatory activity against in C57BL/6 mouse BMDC assessed as inhibition of LPS-stimulated TNFalpha production compound pre-incubated for 1 hr before LPS challenge by ELISA
[3] = Antiinflammatory activity against in C57BL/6 mouse BMDC assessed as inhibition of LPS-stimulated IL6 production compound pre-incubated for 1 hr before LPS challenge by ELISA

Compound	IC50 [1]	IC50 [2]	IC50 [3]
C=C(C)[C@H]1CCC2=C[C@@H](C[C@@]3(C)CC(=O)[C@H](CC(=O)C1)O3)OC2=O	> 100 µM	> 100 µM	> 100 µM
C=C(C)[C@@H]1CC(=O)CC2=C(C1)[C@]1(O)C(=O)O[C@@H]3C[C@](C)(O)[C@H](C2=O)[C@@H]31	> 100 µM	> 100 µM	> 100 µM
C=C(C)[C@@H]1CC(=O)C[C@@H]2O[C@](C)(CC2=O)C[C@@H]2C=C(C(=O)O2)[C@H](OC)C1	5.3 µM	> 100 µM	13.1 µM
C=C(C)[C@@H]1CC(=O)[C@H]2[C@H](C1)[C@@H]1C(=O)O[C@@H]3C[C@@]4(C)O[C@H]2C(=O)[C@@H]4[C@H]13 [INELEGANOLIDE]	> 100 µM	> 100 µM	> 100 µM
C=C(C)[C@H]1C/C=C(\C(=O)OC)CC(=O)C[C@@]2(C)CC(=O)[C@@H](CC(=O)C1)O2 [NORCEMBRENE 5]	> 100 µM	> 100 µM	> 100 µM
C[S+]([O-])c1ccc(-c2nc(-c3ccc(F)cc3)c(-c3ccncc3)[nH]2)cc1 (centres undefined) [SB-203580]	5.67 µM	7.37 µM	3.56 µM
C=C(C)[C@@H]1CC(=O)CC2=C(C1)[C@@H]1C(=O)O[C@@H]3C[C@](C)(O)[C@H](C2=O)[C@H]13 [SCABROLIDE A]	23.5 µM	> 100 µM	69.9 µM
C=C(C)[C@@H]1CC(=O)CC2=C(C1)[C@@H]1C(=O)O[C@@H]3CC(C)=C(C2=O)[C@H]13 [YONAROLIDE]	> 100 µM	> 100 µM	> 100 µM
